Source: patent US7455861B2, “Angelicae sinensis extracts useful for treatment of cancers” (priority 2004, dated 2008)
Like-named read-outs stand apart in the source and are kept apart here.

How the values were obtained:
[1] = tested on: DBTRG-05MG; experiment: Cytotoxicity (IC50) on DBTRG-05MG; assay type: cell-based; conditions: Homo sapiens
Description: (§1) Human tumor cell lines (MCF-7, CL1-5, HT-29, Caco-2), human umbilical vascular endothelial cells (HUVEC), and human dermal fibroblasts (HDF) were tested for sensitivity on Angelicae sinensis extracts, ligustilide, n-butylidenephthalide and its derivatives in vitro. The DBTRG-05MG, BCM, HL-60 and J5 cells were grown in RPMI-1640 medium containing 10% fetal calf serum and 100 ng/ml penicillin and […] streptomycin at 37° C. in a humidified atmosphere with 5% CO2. The G5T/VGH, RG2, Ni 8, SVEC and Balb/3T3 cells were cultured in DMEM with 10% fetal calf serum and 100 ng/ml penicillin and […] streptomycin at 37° C. in 5% CO2. Mycoplasma infection of the culture cells was excluded by PCR screening methods before each experiment.
The effects on cell viability after the treatments with different concentrations of the Angelicae sinensis extracts or the active components purified therefrom were evaluated by modified MTT assay in triplicate. Briefly, the cells (5×10^3) were incubated into 96-well plates containing 100 μl of a growth medium. The cells were permitted to adhere for 24 hours, then treated with 100 μl of the herbal extracts or the active components dissolved in the medium. The control contained DMSO of <0.02% (v/v). After 24, 48 and 72 h incubation, the drug-containing medium was replaced by 50 μl of fresh medium, and cells in each well were incubated in 50 μl of 400 μg/ml MTT for 6-8 h. The medium and MTT were removed later and 100 μl of DMSO was added to each well and to the control, to dissolve the soluble components. Absorbance at 550 nm of the solutions was measured with MRX Microtiter Plate Luminometer (DYNEX, USA). The absorbance of untreated cells was considered as 100%. To evaluate the effects of the extracts or the active components on cell growth rate of GBM cells, 5×10^3 exponentially growing cells were treated with different concentrations for 24, 48, or 72 h. The cytotoxicity of each test substance was determined as an IC50 value, which represents the drug concentration required to cause 50% inhibition. […]

[2] = tested on: J5; experiment: Cytotoxicity (IC50) on J5; assay type: cell-based; conditions: Homo sapiens
Description: as §1
(§2) The effects on cell viability after the treatments with different concentrations of the Angelicae sinensis extracts or the active components purified therefrom were evaluated by modified MTT assay in triplicate. Briefly, the cells (5×10^3) were incubated into 96-well plates containing 100 μl of a growth medium. The cells were permitted to adhere for 24 hours, then treated with 100 μl of the herbal extracts or the active components dissolved in the medium. The control contained DMSO of <0.02% (v/v). […] Absorbance at 550 nm of the solutions was measured with MRX Microtiter Plate Luminometer (DYNEX, USA). The absorbance of untreated cells was considered as 100%. […]

[3] = tested on: Caco-2; experiment: Cytotoxicity (IC50) on Caco-2; assay type: cell-based; conditions: Homo sapiens
Description: as §1, §2

[4] = tested on: DBTRG-05MG cells; experiment: Western blot analysis of apoptosis molecules; assay type: cell-based, human; conditions: BP 400 μM
Description: DBTRG-05MG cells (human GBM cells) were treated with AS-C (70 μg/ml) for 0, 6, 12, 24 and 48 hours. In another test, DBTRG-05MG cells were treated with BP (400 μM) for 0, 1.5, 3, 6, 12, 24 and 48 hours. The cell pellets were re-suspended in lysis buffer ([…] Tris-HCl, pH 7.5, 1 mM EGTA, 0.5% CHAPS, 10% (v/v) glycerol, 5 mM β-2-mercaptoethanol and 0.1 mM phenylmethylsulfonyl fluoride) and incubated on ice for 30 min, and then centrifuged at 13000×rpm at 4° C. for 20 minutes. The protein concentration of whole cell lysates was measured with BCA protein assay kit (Pierce, Rockford, Ill.) following the manufacturer's instructions. The cell lysates (20 μg/lane) were electrophoresed on 10-12% SDS-PAGE (Bio-Rad, Hercules, Calif.). Proteins were transferred to polyvinyldenefluoride (PVDF) membranes (Amersham Lifesciences, Piscataway, N.J.). The membranes were masked for 1 hour at room temperature with 5% skim milk as the blocking agent, and incubated with the respective antibodies of Fas (FL-335), Fas-L (C-178), caspase 3 (H-277), caspase 8 (H-134), caspase 9 (H-170), Bax (B-9), p16 (F-12), p21 (F-5), p53 (DO-1; 1/100 dilution) (Santa Cruz Biotechnology Inc., CA, U.S.A.), phospho-p53 (Ser15; 1/2000 dilution) and phospho-Rb (Ser795; 1/2000 dilution) (Cell Signaling Technology, MA, USA) for 2 hours at room temperature. Antibody recognition was detected, by incubating the membranes with the respective anti-mouse, anti-rabbit, anti-goat IgG secondary antibodies (1/1000 dilution; Santa Cruz Biotechnology Inc., CA, U.S.A.) conjugated to horseradish peroxidase, for 1 hour at room temperature, and visualized with the ECL Plus chemiluminescence system (Amersham, Arlington Heights, Ill.). For system control, SDS-PAGE gels, for every test sample, were prepared in duplicate, containing the same amount of protein; and the control gel was stained with coomassie blue. The other gel was used for Western Blot analysis. The intensity of the bands was analyzed by densitometry with a GS-800 Calibrated Imaging Densitometer (Quantity One 4.0.3 software; Bio-Rad). […] In addition, the activation of the death receptor-induced apoptosis-related caspases-8 was monitored.

Work on `CCCC=C1OC(=O)c2ccccc21` [BP, n-Butylidenephthalide] yielded an IC50 ([1]; Table 2, read-out: Cytotoxicity (IC50) DBTRG-05MG) of 7 to 10 µg/mL, an IC50 ([1]; Table 2, value in parentheses, read-out: Cytotoxicity (IC50) DBTRG-05MG) of 37.2 to 53.2 µM and an IC50 ([2]; Table 2) of 15 to 20 µg/mL. It also gave an IC50 ([2]; Table 2, value in parentheses) of 79.8 to 106 µM, an IC50 ([3]; Table 1, value in parentheses) of over 106 µM and an IC50 ([3]; cancer cells, Table 1) of over 20 µg/mL. For the same molecule, the Caspase-3 [4] was “increase”, the “cdk2, cdk4, cdk6 cyclins D1 and cycline E” value [4] was “decrease” and the “expression of the Fas Ligand” value [4] was “suppressing”. For the same molecule, the “procaspase 8” value [4] was “declined”, the procaspase-3 [4] was “declined” and the procaspase-9 [4] was “declined”. The “expression of Fas, increase” value ([4]; 1.5 h) was 5.2 times, the p53 phosphorylation increase ([4]; 1.5 h) was 5.2 times and the AIF expression increase ([4]; 48 h) was 2.4 times. For the same molecule, the Bax expression increase ([4]; 48 h) was 16 times, the Rb phosphorylation decrease ([4]; 48 h) was 0.2 times and the “activated caspase-9” value ([4]; 48 h) was 25.8 times. The “activation of caspase 8” value ([4]; 48 h) was 137.9, the “expression of Fas, increase” value ([4]; 48 h) was 27.9 times and the p16 expression increase ([4]; 48 h) was 3.1 times. For the same molecule, the p21 expression increase ([4]; 48 h) was 2.3 times, the p53 expression increase ([4]; 48 h) was 1.4 times and the p53 phosphorylation increase ([4]; 48 h) was 9.2 times.
